Measurements reported in paper PMC7961763, “Semi-Synthesis of Harringtonolide Derivatives and Their Antiproliferative Activity” (Molecules, 2021).
Where two headings read alike, the source gives them in different places.

Columns and labels:
[1] = tested on: A-549 (human lung adenocarcinoma cell line); assay: MTT assay, cytotoxicity against A549; assay type: cell-based; details: read-out: IC50 A549
Experimental: (§1) All the synthesized derivatives of HO were tested for their antiproliferative activity against four human cancer cell lines, including the HCT-116, A375, A-549, and Huh-7 cell lines, using the MTT assay. Cisplatin was used as a positive control, while lead compound HO (1) was also included in the study for comparison.
(§2) HCT-116 (Human colon cancer cell line), A375 (human melanoma cancer cell line), A-549 (human lung adenocarcinoma cell line), Huh-7 (human hepatoma cancer cell line), and L-02 (normal hepatic cell line) were purchased from the Cell Bank of Shanghai Institute of Biochemistry and Cell Biology, Chinese Academy of Sciences (Shanghai, China). The cells were cultured in Dulbecco’s modified Eagle medium (DMEM; NY, USA), which were all supplemented with 10% fetal bovine serum (FBS; NY, USA) at 37 °C with 5% CO2.
(§3) The cytotoxic activity was evaluated using the MTT assay. Briefly, cells were seeded in 96-well plates at a density of 5 × 10^3 cells/well in 100 μL of DMEM medium at 37 °C for 24 h. Stock solutions of test compounds were prepared in DMSO at concentration of 50 mM, and twofold serial dilution with a culture medium was performed to obtain appropriate concentrations right before the assay. After that, the cells were incubated with synthetic derivatives or cisplatin as a positive control at the various concentrations (0.78125-50 μM) for 48 h. Then, 20 μL of 3-(4,5-Dimethylthiazol-2-yl)-2,5-diphenyltetrazolium bromide (MTT, Aladdin, Shanghai, China) solution (5 mg/mL in PBS) was added, and then the cells were incubated at 37 °C for an additional 4 h. The supernatant was removed, and 150 μL of dimethyl sulfoxide was added to dissolve the MTT formazan. The optical density (OD) was measured on a microplate reader (SpectraMax Plus 384, Molecular Devices, Sunnyvale, CA, USA) at a wavelength of 570 nm. The cytotoxic activity was expressed as the IC50 values. The above tests were repeated three times in parallel. Vehicle DMSO (0.1%) was used as a negative control.

[2] = tested on: Huh-7 (human hepatoma cancer cell line); assay: MTT assay, cytotoxicity against Huh-7; assay type: cell-based; details: read-out: IC50 Huh-7
Experimental: as §1, §2, §3

[3] = tested on: A375 (human melanoma cancer cell line); assay: MTT assay, cytotoxicity against A375; assay type: cell-based; details: read-out: IC50 A375
Experimental: as §1, §2, §3

[4] = tested on: HCT-116 (human colon cancer cell line); assay: MTT assay, cytotoxicity against HCT-116; assay type: cell-based; details: read-out: IC50 HCT-116
Experimental: as §1, §2, §3

[5] = tested on: human normal hepatic L-02 cells; assay: MTT assay, cytotoxicity on normal L-02 cells; assay type: cell-based; details: for IC50: Homo sapiens, read-out: IC50 L-02; for SI (selectivity index): IC50 (L-02)/IC50 (Huh-7)
Experimental: The selectivity index is crucial for drug development, because it could mediate side effects, including tissues toxicity. Therefore, according to cytotoxic activity results, compounds 6 and 10 with potent cytotoxicity in Huh-7 cells were selected to investigate the selectivity between normal and cancer cells. These two compounds were tested on human normal hepatic L-02 cells with HO as control.
as §2, §3

[6] = parameters: method as in PMID 18523925, PMID 29182349, PMID 31184894; details: compared with HO; cited from earlier work
[7] = L02, MTT, 48 h, normal hepatic L-02 cells

Compound: Cc1cc(=O)cc2c3c1C1OC4C5OC(=O)C(C=C2)(C4C)C3C15 [Compound 6, (3R,4aR,10aS,11S)-5,11-dimethyl-2a,3,4a,10a1-tetrahydro-1H-2,4-dioxa-3,10a methanocyclohepta[bc]cyclopenta[jk]acenaphthylene-1,7(2a1H)-dione]
- IC50 ([1]; Homo sapiens, A549, 48 h, MTT, 48 h, A549 cells): 5.47 ± 0.13 µM
- IC50 ([2]; Homo sapiens, Huh-7, 48 h, MTT, 48 h, Huh-7 cells): 1.19 ± 0.08 µM
- IC50 ([3]; Homo sapiens, A-375, 48 h, MTT, 48 h, A375 cells): 4.85 ± 0.42 µM
- IC50 ([4]; Homo sapiens, HCT-116, 48 h, MTT, 48 h, HCT-116 cells): 0.86 ± 0.05 µM
- IC50 [5, 7]: 67.2 ± 0.43 µM
- SI (selectivity index) [5]: 56.5
- selectivity index relative to HO ([5]; SI between Huh-7 and L-02, compared with HO): 20 times

Compound: Cc1cc(=O)cc2c3c1C1OC4C5OC(=O)C(CC2O)(C4C)C3C15 [Compound 10, (3R,4aR,9S,10aS,11S)-9-hydroxy-5,11-dimethyl-2a,3,4a,9,10,10a1-hexahydro-1H-2,4-dioxa-3,10a-methanocyclohepta[bc]cyclopenta[jk]acenaphthylene-1,7(2a1H)-dione]
- IC50 ([1]; MTT, 48 h, A549 cells): 8.25 ± 0.2 µM
- IC50 ([2]; MTT, 48 h, Huh-7 cells): 6.34 ± 0.32 µM
- IC50 ([3]; MTT, 48 h, A375 cells): 5.79 ± 1.26 µM
- IC50 ([4]; MTT, 48 h, HCT-116 cells): 2.29 ± 0.27 µM
- IC50 [5, 7]: 22.3 ± 1.11 µM
- SI (selectivity index) [5]: 3.5

Compound: Cc1cc(=O)cc2c3c1[C@@H]1O[C@H]4[C@@H]5OC(=O)[C@](CC2)([C@@H]4C)[C@H]3[C@@H]51 [HO (1), Harringtonolide]
- IC50 ([1]; Homo sapiens, A549, 48 h): 1.67 ± 0.23 µM
- IC50 ([2]; Homo sapiens, Huh-7, 48 h): 1.25 ± 0.08 µM
- IC50 ([3]; Homo sapiens, A-375, 48 h): 1.34 ± 0.23 µM
- IC50 ([4]; Homo sapiens, HCT-116, 48 h): 0.61 ± 0.03 µM
- IC50 ([5]; L02, 48 h): 3.46 ± 0.36 µM
- SI (selectivity index) [5]: 2.8

Compound: CC1=C[C@@H](O)[C@H](O)[C@@]2(O)CCC34C(=O)OC5C6C3C2=C1[C@@H]6O[C@@H]5C4C (some centres unmarked) [fortalpinoid K]
- cytotoxic activities (result in words) [6]: losing of cytotoxic activities
